Measurements published in patent publication US9499550B2 (BRISTOL-MYERS SQUIBB COMPANY, priority 2012, dated 2016).
Read-outs that look alike come from different tables or passages of the source.

Assays:
[1] = system: HCV genotype 1a (H77 strain) replicon in HUH-7 cells; test: HCV replicon luciferase reporter assay, genotype 1a; assay type: cell-based; conditions: Hepatitis C virus, Huh-7, 72 h, 3 days incubation, read-out: LE_1a (EC50, range)
Method in brief: (§1)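 Replicon inhibition for both genotypes was measured as Renilla luciferase signal (EnduRen, 7.5 μM final, 2 h) after 3-day, 37° C exposure of replicon-bearing HUH-7 cells in 4% FCS DMEM, 0.5% DMSO. The 1b construct carries S1179I; the 1a H77 construct carries P1496L and S2204I. Twenty-point, 3-fold dilutions were fitted four-parametrically for EC50, and CC50 was taken from multiplexed Cell Titer-Blue.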

[2] = system: HCV genotype 1b (Con1) replicon in HUH-7 cells; test: HCV replicon luciferase reporter assay, genotype 1b; assay type: cell-based; conditions: Hepatitis C virus, Huh-7, 72 h, 3 days incubation, read-out: LE_1b (EC50, range)
Method in brief: as §1

[3] = HCV genotype 1a replicon luciferase assay, range class
[4] = HCV genotype 1b replicon luciferase assay, range class
[5] = HCV genotype 1a replicon luciferase
[6] = HCV genotype 1b replicon luciferase

| Compound | EC50 [1, 3] | EC50 [2, 4] | EC50 [1, 5] | EC50 [2, 6] | also measured |
| --- | --- | --- | --- | --- | --- |
| CC(C)Oc1cc2c(Cl)cccc2c(O[C@@H]2C[C@H]3C(=O)N[C@]4(C(=O)NS(=O)(=O)C5(C)CC5)C[C@H]4/C=C\CC[C@@H](C)C[C@@H](C)[C@H](NC(=O)OC(C)(C)C(F)(F)F)C(=O)N3C2)n1 [Compound 1102, 1,1,1-trifluoro-2-methylpropan-2-yl((2R,6S,7R,9R,13aS,14aR,16aS,Z)-2-((5-chloro-3-isopropoxyisoquinolin-1-yl)oxy)-7,9-dimethyl-14a-(((1-methylcyclopropyl)sulfonyl)carbamoyl)-5,16-dioxo-1,2,3,5,6,7,8,9,10,11,13a,14,14a,15,16,16a-hexadecahydrocyclopropa[e]pyrrolo[1,2-a][1,4]diazacyclopentadecin-6-yl)carbamate] | < 5.46 nM | < 5.46 nM |  |  |  |
| C[C@@H]1CC/C=C\[C@@H]2C[C@@]2(C(=O)NS(=O)(=O)C2(CF)CC2)NC(=O)[C@@H]2C[C@@H](Oc3nc4c(c5ccccc35)CCCO4)CN2C(=O)[C@@H](NC(=O)OC(C)(C)C(F)(F)F)[C@H](C)C1 [Compound 6050, 1,1,1-trifluoro-2-methylpropan-2-yl((2R,6S,7R,9R,13aS,14aR,16aS,Z)-2-((2,3-dihydro-1H-pyrano[2,3-c]isoquinolin-6-yl)oxy)-14a-(((1-(fluoromethyl)cyclopropyl)sulfonyl)carbamoyl)-7,9-dimethyl-5,16-dioxo-1,2,3,5,6,7,8,9,10,11,13a,14,14a,15,16,16a-hexadecahydrocyclopropa[e]pyrrolo[1,2-a][1,4]diazacyclopentadecin-6-yl)carbamate] |  |  | 1.01 to 5 nM | 0.1 to 0.5 nM |  |
| [2H]C([2H])([2H])C(OC(=O)N[C@@H]1C(=O)N2C[C@H](Oc3nc(-c4ccc(OC(C)C)cn4)cc4cc(OC)ccc34)C[C@H]2C(=O)N[C@]2(C(=O)NS(=O)(=O)C3CC3)C[C@H]2/C=C\CC[C@@H](C)C[C@H]1C)(C([2H])([2H])[2H])C(F)(F)F [Compound 5205, 1,1,1,3,3,3-hexadeutero-2-(trifluoromethyl)propan-2-yl((2R,6S,7R,9R,13aS,14aR,16aS,Z)-14a-((cyclopropylsulfonyl)carbamoyl)-2-((3-(5-isopropoxypyridin-2-yl)-6-methoxyisoquinolin-1-yl)oxy)-7,9-dimethyl-5,16-dioxo-1,2,3,5,6,7,8,9,10,11,13a,14,14a,15,16,16a-hexadecahydrocyclopropa[e]pyrrolo[1,2-a][1,4]diazacyclopentadecin-6-yl)carbamate] |  |  | < 5.46 nM | < 5.46 nM |  |
| COc1ccc2c(O[C@@H]3C[C@H]4C(=O)N[C@]5(C(=O)NS(=O)(=O)C6(F)CC6)C[C@H]5/C=C\CC[C@@H](C)C[C@@H](C)[C@H](NC(=O)OC(C)(C)C(F)(F)F)C(=O)N4C3)nccc2c1 [Compound 11] |  |  |  |  | EC50 ([1]; GETYPE1A, HCV genotype 1a replicon luciferase assay, range class): < 5.46 nM; EC50 ([2]; GETYPE1B, HCV genotype 1b replicon luciferase assay, range class): < 5.46 nM |
| CC[C@@H]1C[C@H](C)CC/C=C\[C@@H]2C[C@@]2(C(=O)NS(=O)(=O)C2CC2)NC(=O)[C@@H]2C[C@@H](Oc3nccc4cc(OC)ccc34)CN2C(=O)[C@H]1NC(=O)OC(C)(C)C [Compound 4005, tert-butyl (2R,6S,7R,9R,13aS,14aR,16aS,Z)-14a-(cyclopropylsulfonylcarbamoyl)-7-ethyl-2-(6-methoxyisoquinolin-1-yloxy)-9-methyl-5,16-dioxo-1,2,3,5,6,7,8,9,10,11,13a,14,14a,15,16,16a-hexadecahydrocyclopropa[e]pyrrolo[1,2-a][1,4]diazacyclopentadecin-6-ylcarbamate] |  |  | < 5.46 nM | < 5.46 nM |  |
| COc1ccc2c(O[C@@H]3C[C@H]4C(=O)N[C@]5(C(=O)NS(=O)(=O)C6CC6)C[C@H]5/C=C\CC[C@H](C)C[C@@H](C)[C@H](NC(=O)OC(C)(C)C)C(=O)N4C3)nc(-c3ccc(F)cc3)cc2c1 [Compound 3041, tert-butyl ((2R,6S,7R,9S,13aS,14aR,16aS,Z)-14a-((cyclopropylsulfonyl)carbamoyl)-2-((3-(4-fluorophenyl)-6-methoxyisoquinolin-1-yl)oxy)-7,9-dimethyl-5,16-dioxo-1,2,3,5,6,7,8,9,10,11,13a,14,14a,15,16,16a-hexadecahydrocyclopropa[e]pyrrolo[1,2-a][1,4]diazacyclopentadecin-6-yl)carbamate] | < 5.46 nM | < 5.46 nM |  |  |  |
| [2H]C([2H])([2H])C(OC(=O)N[C@@H]1C(=O)N2C[C@H](Oc3nc(N(C)C)cc4cc(OC)ccc34)C[C@H]2C(=O)N[C@]2(C(=O)NS(=O)(=O)C3(C)CC3)C[C@H]2/C=C\CC[C@H](C)C[C@H]1C)(C([2H])([2H])[2H])C(F)(F)F [Compound 3114, 1,1,1,3,3,3-hexadeutero-2-(trifluoromethyl)propan-2-yl((2R,6S,7R,9S,13aS,14aR,16aS,Z)-2-((3-(dimethylamino)-6-methoxyisoquinolin-1-yl)oxy)-7,9-dimethyl-14a-(((1-methylcyclopropyl)sulfonyl)carbamoyl)-5,16-dioxo-1,2,3,5,6,7,8,9,10,11,13a,14,14a,15,16,16a-hexadecahydrocyclopropa[e]pyrrolo[1,2-a][1,4]diazacyclopentadecin-6-yl)carbamate] | 4.82 to 103 nM | 4.82 to 103 nM |  |  |  |
| COCCOc1cnc(O[C@@H]2C[C@H]3C(=O)N[C@]4(C(=O)NS(=O)(=O)C5(C)CC5)C[C@H]4/C=C\CC[C@@H](C)C[C@@H](C)[C@H](NC(=O)OC(C)(C)C(F)(F)F)C(=O)N3C2)c2ccc(OC)cc12 [Compound 1145, 1,1,1-trifluoro-2-methylpropan-2-yl((2R,6S,7R,9R,13aS,14aR,16aS,Z)-2-((6-methoxy-4-(2-methoxyethoxyl)isoquinolin-1-yl)oxy)-7,9-dimethyl-14a-(((1-methylcyclopropyl)sulfonyl)carbamoyl)-5,16-dioxo-1,2,3,5,6,7,8,9,10,11,13a,14,14a,15,16,16a-hexadecahydrocyclopropa[e]pyrrolo[1,2-a][1,4]diazacyclopentadecin-6-yl)carbamate] | < 5.46 nM | < 5.46 nM |  |  |  |
| C[C@@H]1CC/C=C\[C@@H]2C[C@@]2(C(=O)NS(=O)(=O)C2(C)CC2)NC(=O)[C@@H]2C[C@@H](Oc3ncc(OCC(F)F)c4ccccc34)CN2C(=O)[C@@H](NC(=O)OC(C)(C)C)[C@H](C)C1 [Compound 1026, tert-butyl ((2R,6S,7R,9R,13aS,14aR,16aS,Z)-2-((4-(2,2-difluoroethoxyl)isoquinolin-1-yl)oxy)-7,9-dimethyl-14a-(((1-methylcyclopropyl)sulfonyl)carbamoyl)-5,16-dioxo-1,2,3,5,6,7,8,9,10,11,13a,14,14a,15,16,16a-hexadecahydrocyclopropa[e]pyrrolo[1,2-a][1,4]diazacyclopentadecin-6-yl)carbamate] | < 5.46 nM | < 5.46 nM |  |  |  |
| COc1ccc2c(O[C@@H]3C[C@H]4C(=O)N[C@]5(C(=O)NS(=O)(=O)C6CC6)C[C@H]5/C=C\CC[C@@H](C)C[C@@H](C)[C@H](NC(=O)OC5C[C@@H]6C[C@@H]6C5)C(=O)N4C3)nc(-c3ccc(OC(C)C)cn3)cc2c1 (stereo partly drawn) [Compound 5209, (1R,3r,5S)-bicyclo[3.1.0]hexan-3-yl((2R,6S,7R,9R,13aS,14aR,16aS,Z)-14a-((cyclopropylsulfonyl)carbamoyl)-2-((3-(5-isopropoxypyridin-2-yl)-6-methoxyisoquinolin-1-yl)oxy)-7,9-dimethyl-5,16-dioxo-1,2,3,5,6,7,8,9,10,11,13a,14,14a,15,16,16a-hexadecahydrocyclopropa[e]pyrrolo[1,2-a][1,4]diazacyclopentadecin-6-yl)carbamate] |  |  | < 5.46 nM | < 5.46 nM |  |
| [2H]C([2H])([2H])Oc1cnc(O[C@@H]2C[C@H]3C(=O)N[C@]4(C(=O)NS(=O)(=O)C5(C)CC5)C[C@H]4CCCC[C@@H](C)C[C@@H](C)[C@H](NC(=O)OC(C)(C)C(F)(F)F)C(=O)N3C2)c2ccccc12 [Compound 5111, 1,1,1-trifluoro-2-methylpropan-2-yl((2R,6S,7R,9R,13aR,14aR,16aS)-7,9-dimethyl-14a-(((1-methylcyclopropyl)sulfonyl)carbamoyl)-5,16-dioxo-2-((4-(trideuteromethoxy)isoquinolin-1-yl)oxy)octadecahydrocyclopropa[e]pyrrolo[1,2-a][1,4]diazacyclopentadecin-6-yl)carbamate] |  |  | < 5.46 nM | < 5.46 nM |  |
| COc1cc2cc(-c3ccc(OC(C)C)cc3)nc(O[C@@H]3C[C@H]4C(=O)N[C@]5(C(=O)NS(=O)(=O)C6(C)CC6)C[C@H]5/C=C\CC[C@@H](C)C[C@@H](C)[C@H](NC(=O)O[C@@H]5C[C@@H]6C[C@@H]6C5)C(=O)N4C3)c2cc1F [Compound 3192, (1R,3r,5S)-bicyclo[3.1.0]hexan-3-yl((2R,6S,7R,9R,13aS,14aR,16aS,Z)-2-((7-fluoro-3-(4-isopropoxyphenyl)-6-methoxyisoquinolin-1-yl)oxy)-7,9-dimethyl-14a-(((1-methylcyclopropyl)sulfonyl)carbamoyl)-5,16-dioxo-1,2,3,5,6,7,8,9,10,11,13a,14,14a,15,16,16a-hexadecahydrocyclopropa[e]pyrrolo[1,2-a][1,4]diazacyclopentadecin-6-yl)carbamate] |  |  | < 5.46 nM | < 5.46 nM |  |
